# Reference: ChEMBL document CHEMBL6087460, “Generating a Peptide Library Using the Repeats of Amino Acid Scaffolds Created by Sliding the Framework of a 7-mer Human Chemerin Segment and Discovery of Potent Antibacterial and Antimycobacterial Peptides” (J Med Chem, 2025)
# Calls of active or inactive are those of the source. No cut-off for these calls is given here.
# Tests used:
# [1] = tested on: Mycobacterium tuberculosis variant bovis; test: Antitubercular activity against Mycobacterium bovis BCG incubated for 5 days by rezasurin dye based assay; assay type: functional; settings: 120 h, time 5 day
# [2] = tested on: Mycobacterium tuberculosis variant bovis; test: Antitubercular activity against Mycobacterium bovis BCG infected in BALB/c mouse assessed as bacterial survival in lungs at 5 mg/kg, iv administered once a day for 2 weeks measured on day 15 relative to control; assay type: functional; settings: 336 h
# [3] = tested on: Mycobacterium tuberculosis variant bovis; test: Antimycobacterial activity against Mycobacterium bovis BCG infected in human THP-1 cells derived macrophages assessed as reduction in intracellular bacterial survival at 10 ug/ml incubated for 24 hrs relative to control; assay type: functional; settings: dose 10 µg/ml
# [4] = tested on: Mycobacterium tuberculosis variant bovis; test: Antitubercular activity against Mycobacterium bovis BCG infected in BALB/c mouse assessed as bacterial survival in spleen at 5 mg/kg, iv administered once a day for 2 weeks measured on day 15 relative to control; assay type: functional; settings: 336 h
# [5] = tested on: Mycobacterium tuberculosis variant bovis; test: Antimycobacterial activity against Mycobacterium bovis BCG infected in human THP-1 cells derived macrophages assessed as reduction in intracellular bacterial survival at 20 ug/ml incubated for 24 hrs relative to control; assay type: functional; settings: dose 20 µg/ml
# [6] = tested on: Mycobacterium tuberculosis variant bovis; test: Antitubercular activity against Mycobacterium bovis BCG infected in BALB/c mouse assessed as decrease in bacterial count in spleen at 2.5 to 5 mg/kg, iv administered once a day for 2 weeks; assay type: functional, organism-based; settings: dose 2.5-5 mg/kg
# [7] = tested on: Mycobacterium tuberculosis variant bovis; test: Antitubercular activity against Mycobacterium bovis BCG infected in BALB/c mouse assessed as decrease in bacterial count in lungs at 2.5 to 5 mg/kg, iv administered once a day for 2 weeks; assay type: functional, organism-based; settings: dose 2.5-5 mg/kg
compound,measurement,setting,value
H-KVLGKVLGKVLGKVLG-OH,MIC,[1],> 10 µM
H-RLRLRLRLRL-OH,MIC,[1],10 µM
H-VLGRVLGRVLGRVLGR-OH,survival at 5 mg/kg,[2],~10%
same,Activity,[3],25%
same,survival at 5 mg/kg,[4],~10%
same,Activity,[5],10%
same,Activity,[6],Active
same,Activity,[7],Active
same,MIC,[1],2.5 µM
H-KVLKVLKVLKVL-OH,MIC,[1],> 10 µM
CO[C@H]1/C=C/O[C@@]2(C)Oc3c(C)c(O)c4c(O)c(c(/C=N/N5CCN(C)CC5)c(O)c4c3C2=O)NC(=O)/C(C)=C\C=C\[C@H](C)[C@H](O)[C@@H](C)[C@@H](O)[C@@H](C)[C@H](OC(C)=O)[C@@H]1C [RIFAMPIN],MIC,[1],0.25 µM
H-GRLGRLGRLGRLGRL-OH,MIC,[1],5 µM
H-RLVRLVRLVRLV-OH,MIC,[1],5 µM
H-GRLVGRLVGRLVGRLV-OH,survival at 5 mg/kg,[2],~10%
same,Activity,[3],35%
same,survival at 5 mg/kg,[4],~10%
same,Activity,[5],20%
same,Activity,[6],Active
same,Activity,[7],Active
same,MIC,[1],2.5 µM
H-RLVRLVRLVRLVRLV-OH,MIC,[1],> 10 µM
H-LGRLLGRLLGRL-OH,MIC,[1],5 µM
